According to patent publication US9981976B2, “Piperidine substituted pyrazolo[1,5-A]pyrimidine derivatives with inhibitory activity on the replication of the respiratory syncytial virus (RSV)” (priority 2014, dated 2018):

What was measured:
HeLa cells = experiment: Cytotoxicity in HeLa cells, ATP content (ATPlite kit); conditions: three days incubation, CC50 = 50% concentration for cytotoxicity
Description: Black 384-well clear-bottom microtiter plates (Corning, Amsterdam, The Netherlands) were filled via acoustic drop ejection using the echo liquid handler (Labcyte, Sunnyvale, Calif.). 200 nL of compound stock solutions (100% DMSO) were transferred to the assay plates. 9 serial 4-fold dilutions of compound were made, creating per quadrant the same compound concentration. The assay was initiated by adding 10 μL of culture medium to each well (RPMI medium without phenol red, 10% FBS-heat inactivated, 0.04% gentamycin (50 mg/mL). All addition steps are done by using a multidrop dispenser (Thermo Scientific, Erembodegem, Belgium). Next, rgRSV224 virus (MOI=1) diluted in culture medium was added to the plates. rgRSV224 virus is an engineered virus that includes an additional GFP gene (Hallak L K, Spillmann D, Collins P L, Peeples M E. Glycosaminoglycan sulfation requirements for respiratory syncytial virus infection; Journal of virology (2000), 74(22), 10508-13) and was in-licensed from the NIH (Bethesda, Md., USA). Finally, 20 μL of a HeLa cell suspension (3,000 cells/well) were plated. Medium, virus- and mock-infected controls were included in each test. The wells contain 0.05% DMSO per volume. Cells were incubated at 37° C. in a 5% CO2 atmosphere. Three days post-virus exposure, viral replication was quantified by measuring GFP expression in the cells by an in house developed MSM laser microscope (Tibotec, Beerse, Belgium). The EC50 was defined as the 50% inhibitory concentration for GFP expression. In parallel, compounds were incubated for three days in a set of white 384-well microtiter plates (Corning) and the cytotoxicity of compounds in HeLa cells was determined by measuring the ATP content of the cells using the ATPlite kit (Perkin Elmer, Zaventem, Belgium) according to the manufacturer's instructions. The CC50 was defined as the 50% concentration for cytotoxicity.

rgRSV224 virus = experiment: microbe, parasite or virus in culture; type: cell-based, respiratory syncytial virus (RSV); conditions: human respiratory syncytial virus, HeLa, 72 h, read-out: RSV HELA pEC50, rgRSV224 virus (MOI=1), HeLa cells, GFP expression three days post-virus exposure (converted)

Structure (SMILES)	melting point [°C]	SI TOX HELA (HeLa cells)	EC50 (rgRSV224 virus) [nM]
Cc1ccc2ncnc(N3CCCCC3c3cc4nc(N5CCC5)c(C)cn4n3)c2c1 (stereo not shown) [P11, 4-(2-(5-(azetidin-1-yl)-6-methylpyrazolo[1,5-a]pyrimidin-2-yl)-piperidin-1-yl)-6-methylquinazoline]	205.49	<4.6	126
Cc1ccc2ncnc(N3CCCCC3c3cc4nc(N5CC(O)C5)c(C)cn4n3)c2c1 (stereo not shown) [P12, 1-(6-methyl-2-(1-(6-methylquinazolin-4-yl)piperidin-2-yl)pyrazolo-[1,5-a]pyrimidin-5-yl)azetidin-3-ol]	233.08	<4	200
Cc1nc2c(N3CCCCC3c3cc4nc(N5CCC5)cc(N5CCOCC5)n4n3)ncnc2s1 (stereo not shown) [P20, 4-(5-(azetidin-1-yl)-2-(1-(2-methylthiazolo[5,4-d]pyrimidin-7-yl)-piperidin-2-yl)pyrazolo[1,5-a]pyrimidin-7-yl)morpholine]	229.8	5.4	631
Cc1ccc2ncnc(N3CCCCC3c3cc4nc(N5CCC5)cc(C)n4n3)c2c1 (stereo not shown) [P21, 4-(2-(5-(azetidin-1-yl)-7-methylpyrazolo[1,5-a]pyrimidin-2-yl)-piperidin-1-yl)-6-methylquinazoline]	192.43	<4.6	398
Cc1nc(N2CCCCC2c2cc3nc(N4CC(N)C4)c(C)cn3n2)c2c(C)cccc2n1 (stereo not shown) [P27, 1-(2-(1-(2,5-dimethylquinazolin-4-yl)piperidin-2-yl)-6-methyl-pyrazolo[1,5-a]pyrimidin-5-yl)azetidin-3-amine]	176.85	4.5	631
COC(=O)N(C(=O)OC)c1nc(N2CCCCC2c2cc3nc(N4CCC4)cc(N4CCOCC4)n3n2)c2c(C)cccc2n1 (stereo not shown) [P28, dimethyl (4-{2-[5-(azetidin-1-yl)-7-(morpholin-4-yl)pyrazolo[1,5-a]-pyrimidin-2-yl]piperidin-1-yl}-5-methylquinazolin-2-yl)imidodicarbonate]	136.62	<4	794
Cc1cccc2nc(C(=O)NS(C)(=O)=O)nc(N3CCCCC3c3cc4nc(N5CCC5)cc(N5CCOCC5)n4n3)c12 (stereo not shown) [P69, 4-(2-(5-(azetidin-1-yl)-7-morpholinopyrazolo[1,5-a]pyrimidin-2-yl)-piperidin-1-yl)-5-methyl-N-(methylsulfonyl)quinazoline-2-carboxamide]	–	<4	316
CNC(=O)c1nc(N2CCCCC2c2cc3nc(N4CCC4)cc(N4CCOCC4)n3n2)c2c(C)cccc2n1 (stereo not shown) [P70, 4-(2-(5-(azetidin-1-yl)-7-morpholinopyrazolo[1,5-a]pyrimidin-2-yl)-piperidin-1-yl)-N,5-dimethylquinazoline-2-carboxamide]	–	4.3	631
Cc1cccc2nc(C(=O)NS(=O)(=O)C3CC3)nc(N3CCCCC3c3cc4nc(N5CCC5)cc(N5CCOCC5)n4n3)c12 (stereo not shown) [P71, 4-(2-(5-(azetidin-1-yl)-7-morpholinopyrazolo[1,5-a]pyrimidin-2-yl)-piperidin-1-yl)-N-(cyclopropylsulfonyl)-5-methylquinazoline-2-carboxamide]	–	<4	398
Cc1cccc2nc(-c3cnoc3)nc(N3CCCCC3c3cc4nc(N5CCC5)cc(N5CCOCC5)n4n3)c12 (stereo not shown) [P72, 4-(5-(azetidin-1-yl)-2-(1-(2-(isoxazol-4-yl)-5-methylquinazolin-4-yl)-piperidin-2-yl)pyrazolo[1,5-a]pyrimidin-7-yl)morpholine]	–	4.5	25.1
Cc1nnn(C)c1-c1nc(N2CCCCC2c2cc3nc(N4CCC4)cc(N4CCOCC4)n3n2)c2c(C)cccc2n1 (stereo not shown) [P73, 4-(5-(azetidin-1-yl)-2-(1-(2-(1,4-dimethyl-1H-1,2,3-triazol-5-yl)-5-methylquinazolin-4-yl)piperidin-2-yl)pyrazolo[1,5-a]pyrimidin-7-yl)morpholine]	238.91	4.8	126
COc1cccc2ncnc(N3CCCCC3c3cc4nc(N5CCC5)cc(N5CCOCC5)n4n3)c12 (stereo not shown) [P74, 4-(5-(azetidin-1-yl)-2-(1-(5-methoxyquinazolin-4-yl)piperidin-2-yl)-pyrazolo[1,5-a]pyrimidin-7-yl)morpholine]	–	<4.6	15.8
